From publication PMC7918738, “Microtubule Destabilizing Sulfonamides as an Alternative to Taxane-Based Chemotherapy” (International Journal of Molecular Sciences, 2021)
In brackets after ≈: the same amount, converted by molar mass.

Tests used:
[1] = system: HT-29 (colon adenocarcinoma); assay: Antiproliferative activity against CA-4-resistant HT-29 with or without verapamil (sensitivity to MDR pumps, XTT); assay type: cell-based, human; conditions: verapamil alone at 10 µM
Excerpt: Detecting changes in drug potency when inhibiting MDR-mediated efflux reflect that these transporters reduce the intracellular drug concentration. HT-29 has been reported to express moderate levels of MDR1, accounting for a resistant phenotype. A comparison of the antiproliferative IC50 values of each MDS in the presence or absence of verapamil provides an estimate of the susceptibility of each compound to efflux pumps.
(§1) MCF7 (human breast carcinoma), SKOV-3 (human ovarian carcinoma), OVCAR-3 (human ovarian carcinoma), OVCAR-8 (human ovarian carcinoma), and HeLa (human cervical carcinoma) cell lines were cultured in Dulbecco’s Modified Eagle’s Medium (DMEM) (Gibco, Thermo Fischer Scientific) containing 10% (v/v) heat-inactivated fetal bovine serum (HIFBS) (Lonza-Cambrex, Karlskoga, Sweden), 2 mM L-glutamine (Lonza-Cambrex, Karlskoga, Sweden), 100 μg/mL streptomycin, and 100 IU/mL penicillin (Lonza-Cambrex) at 37 °C in humidified 95% air and 5% CO2. HT-29 (human colon carcinoma), IGROV-1 (human ovarian carcinoma), and A2780 (human ovarian carcinoma) cell lines were cultured in RPMI 1640 medium (Gibco, Thermo Fischer Scientific) supplemented with 10% HIFBS, 100 μg/mL streptomycin, and 100 IU/mL penicillin at 37 °C in humidified 95% air and 5% CO2 atmosphere. The presence of mycoplasma was routinely checked with MycoAlert kit (Lonza-Cambrex) and only mycoplasma-free cells were used in the experiments. Ovarian tumor cell lines were originally acquired from Dr Atanasio Pandiella from Centro de Investigación del Cáncer (CIC), Salamanca, Spain. HeLa, HT-29 and MCF7 tumor cell lines were provided by Dr Faustino Mollinedo from Centro de Investigaciones Biológicas Margarita Salas, Madrid, Spain.
MCF7, HeLa, and HT-29 cell proliferation, when treated with the corresponding compounds, were determined using the XTT (sodium 3’-[1(phenylaminocarbonyl)-3,4-tetrazolium]-bis(4-methoxy-6-nitro)-benzenesulfonic acid hydrate) cell proliferation kit (Roche Molecular Biochemicals, Mannheim, Germany). A freshly prepared mixture of XTT labeling reagent with 0.02% (v/v) PMS (N-methyl-dibenzopyrazine methyl sulfate) electron coupling reagent was added to cells (50 µL/well in 96-well plates, total volume of 160 µL/well). Cells were incubated under standard culture conditions for 4 h (MCF7 and HeLa) or 6 h (HT-29). The absorbance of the formazan product generated was measured at 450 nm using a multi-well plate reader. SKOV-3, OVCAR-3, OVCAR-8, IGROV-1, A-2780 cell proliferation, when treated with the corresponding compound, were determined using MTT (3-(4,5-dimethylthiazol-2-yl)-2,5-diphenyl-2H-tetrazolium bromide) (Sigma-Aldrich, St. Louis, MO, USA). MTT in Phosphate Buffer Saline (PBS) (5 mg/ml) was added to cells (110 µL/well in 24-well plates, total volume of 1110 µL/well). After 1 hour of incubation, the medium was aspirated, and formazan violet crystals were dissolved in dimethyl sulfoxide (DMSO) (500 µL/well). Absorbance was measured at 570 nm in a plate reader (Ultra Evolution, Tecan, Männedorf, Suiza). To determine cell viability, cells in exponential growth phase were seeded (100 µL/well in 96-well plates and 1000 µL/well in 24-well plates) with appropriate cell line concentration (1.5·10^4 cells/mL for MCF7 and HeLa, 3·10^4 cells/mL for HT-29, and 1·10^4 cells/mL for SKOV-3, OVCAR-3, OVCAR-8, IGROV-1, and A-2780) in complete RPMI 1640 or DMEM medium at 37°C and 5% CO2 atmosphere. After 24 h incubation, to allow cells to attach to the plates, all compounds were added at 1 µM concentration and the effect on the proliferation was evaluated 72 h post-treatment. […] Non-linear curves fitting the experimental data were carried out for each compound. Compounds were dissolved in DMSO and the final solvent concentrations never exceeded 0.5% (v/v). The control wells included […] with 0.5% (v/v) DMSO and the positive control. 10 µM verapamil was included as a control for the HT-29 cell line.

[2] = system: HeLa (cervix epithelioid carcinoma); assay: Antiproliferative activity against HeLa (XTT colorimetric method); assay type: cell-based; conditions: Homo sapiens, 72 h treatment
Procedure: (§2) The in vitro antiproliferative activity of MDS at 1 µM after 72 h treatments was evaluated by a colorimetric method against the human tumor cell lines HeLa (cervix epithelioid carcinoma) and MCF7 (breast adenocarcinoma). Compounds showing more than 40% inhibition at 1 µM in at least three independent assays were evaluated in a range of concentrations between 0.1 nM and 10 µM for the determination of half-maximal inhibitory concentrations (IC50) (Table 1). Paclitaxel, CA-4, and ABT-751 were used as references.
as §1
(§3) MCF7, HeLa, and HT-29 cell proliferation, when treated with the corresponding compounds, were determined using the XTT (sodium 3’-[1(phenylaminocarbonyl)-3,4-tetrazolium]-bis(4-methoxy-6-nitro)-benzenesulfonic acid hydrate) cell proliferation kit (Roche Molecular Biochemicals, Mannheim, Germany). A freshly prepared mixture of XTT labeling reagent with 0.02% (v/v) PMS (N-methyl-dibenzopyrazine methyl sulfate) electron coupling reagent was added to cells (50 µL/well in 96-well plates, total volume of 160 µL/well). Cells were incubated under standard culture conditions for 4 h (MCF7 and HeLa) or 6 h (HT-29). The absorbance of the formazan product generated was measured at 450 nm using a multi-well plate reader. SKOV-3, OVCAR-3, OVCAR-8, IGROV-1, A-2780 cell proliferation, when treated with the corresponding compound, were determined using MTT (3-(4,5-dimethylthiazol-2-yl)-2,5-diphenyl-2H-tetrazolium bromide) (Sigma-Aldrich, St. Louis, MO, USA). MTT in Phosphate Buffer Saline (PBS) (5 mg/ml) was added to cells (110 µL/well in 24-well plates, total volume of 1110 µL/well). After 1 hour of incubation, the medium was aspirated, and formazan violet crystals were dissolved in dimethyl sulfoxide (DMSO) (500 µL/well). Absorbance was measured at 570 nm in a plate reader (Ultra Evolution, Tecan, Männedorf, Suiza). To determine cell viability, cells in exponential growth phase were seeded (100 µL/well in 96-well plates and 1000 µL/well in 24-well plates) with appropriate cell line concentration (1.5·10^4 cells/mL for MCF7 and HeLa, 3·10^4 cells/mL for HT-29, and 1·10^4 cells/mL for SKOV-3, OVCAR-3, OVCAR-8, IGROV-1, and A-2780) in complete RPMI 1640 or DMEM medium at 37°C and 5% CO2 atmosphere. After 24 h incubation, to allow cells to attach to the plates, all compounds were added at 1 µM concentration and the effect on the proliferation was evaluated 72 h post-treatment. Compounds showing antiproliferative effects at tested concentration were selected for IC50 calculation (50% inhibitory concentration with respect to the untreated controls) from 10^−5 to 10^−10 M concentration. Non-linear curves fitting the experimental data were carried out for each compound. […]

[3] = system: MCF7 (breast adenocarcinoma); assay: Antiproliferative activity against MCF7 (XTT colorimetric method); assay type: cell-based; conditions: Homo sapiens, 72 h treatment
Procedure: as §2, §1, §3

[4] = system: tubulin (microtubular protein isolated from calf brain); assay: Tubulin Polymerization Inhibition (TPI) assay, turbidity; assay type: biochemical; conditions: 1.5 mg/mL microtubular protein
Procedure: The effect of all the synthesized compounds on the in vitro tubulin polymerization was evaluated at 10 µM. All the compounds that inhibited polymerization more than 30% were also assayed at 20 µM. IC50 values were calculated for those compounds inhibiting tubulin polymerization by at least 50% at 20 µM (Table 1 and Supplemental Figure S2).
Microtubular protein was isolated from calf brain according to the modified Shelanski method by two cycles of temperature-dependent assembly/disassembly and stored at −80 °C. Before each use, protein concentration was determined by the Bradford method taking BSA as standard.
Tubulin polymerization was monitored using a Helios α spectrophotometer by measuring the increase in turbidity at 450 nm, caused by a shift from 4 °C to 37 °C, which allows the in vitro microtubular protein to depolymerize and polymerize, respectively. The assay was carried out in quartz cuvettes containing 1.5 mg/mL microtubular protein and the ligand (except for control cuvette with only DMSO at the same concentration) in a mixture of 0.1 M MES buffer, 1 mM EGTA, 1 mM MgCl2, 1 mM β-ME, and 1.5 mM GTP at pH 6.7 (final volume 500 µL). Cuvettes were preincubated at 20 °C for 30 min, to allow ligand binding to tubulin, and subsequently cooled on ice for 10 min. Then, the experiment starts at 4 °C to establish the initial baseline. The assembly process was initiated by a temperature shift to 37 °C and the turbidity produced by tubulin polymerization can be measured by an absorbance increase. After reaching a stable plateau, the temperature was switched back to 4 °C to return to the initial absorption values (to confirm the reversible nature of the monitored process and to determine whether or not the microtubular tubular protein has stabilized). The difference in amplitude between the stable plateau and the initial baseline of the curves was taken as the degree of tubulin polymerization for each experiment. Comparison with control curves under identical conditions but without ligands yielded TPI as a percentage value. All compounds were tested at 10 µM concentration. Compounds that inhibited tubulin polymerization by at least 30% at 10 µM were tested at 20 µM. IC50 values were calculated for compounds that inhibit tubulin polymerization by more than 50% at 20 µM. Compounds were dissolved in DMSO, and the final solvent concentration never exceeded 4% (v/v), which has been reported not to interfere with the assembly process. All the measurements were carried out in at least two independent experiments using microtubular protein from different preparations.

[5] = Aqueous solubility, saturation shake-flask method, UV absorbance; conditions: pH 7, aqueous buffer, thermodynamic from solid
Procedure: UV absorbance at three maximum absorbance wavelengths of selected compounds was measured after 48 h shaking and subsequent microfiltration.
The aqueous solubility of the sulfonamides was determined using an approach based on the saturation shake-flask method. Tested compounds (1–2 mg) were stirred in pH 7.0 phosphate buffer (300 µL) for 48 h at room temperature. The resulting suspension was filtered over a 45 µm filter to discard insoluble residues, and the concentration in the supernatant was measured by UV absorbance. To determine the concentration, a scan between 270 and 400 nm was performed in a Helios-α UV-320 Spectrophotometer (Thermo-Spectronic, Thermo Fischer Scientific, Waltham, MA, USA) for each tested compound. Then, three maximum wavelengths of absorbance per compound were selected from the previous scan and calibration curves were performed at these three wavelengths. Solubility results are given as the average of the three measurements.

Row | SMILES | Effect on HT-29 cell proliferation [1] | IC50 [2] [nM] | IC50 [3] [nM] | IC50 [4] [nM] | TPI % 10 µM ([4]; compound at 10 µM) [%] | solubility at 48 h [5] [µg/mL]
1 | COc1ccc(CCN(C)CCCC(C#N)(c2ccc(OC)c(OC)c2)C(C)C)cc1OC (stereo not drawn) [verapamil, reference compound] | did not affect cell proliferation | – | – | – | – | –
2 | COc1ccc(S(=O)(=O)Nc2cccnc2Nc2ccc(O)cc2)cc1 [ABT-751, reference compound] | – | 388 | 180 | 4400 | 69 | 40 (≈ 108 µM)
